Measured values published in patent US9045484B2, “Inhibitors of the BMP signaling pathway” (The Brigham and Women's Hospital, Inc., priority 2008, dated 2015).
Like-named read-outs stand apart in the source and are kept apart here.

Columns and labels:
[1] = test system: hepcidin; assay: Turpentine-induced hepatic hepcidin expression time course; type: in vivo, C57BL/6 mice; conditions: 3 mg/kg IP every 12 h; compared to vehicle; FIG. 13
[2] = test system: turpentine-treated C57BL/6 mice; assay: Established turpentine-induced anemia of inflammation (rescue); type: in vivo
Method: After the establishment of anemia, treatment with either vehicle or compound 13 (3 mg/kg/d IP) is begun concurrently with an additional 3 weeks of weekly turpentine injections, to assess the potential for rescuing established turpentine-induced anemia of inflammation. […] Shaded areas indicate normative values in C57BL/6 mice for each parameter.

[3] = test system: BMP-induced phosphorylation of SMAD1/5/8; assay: BMP4-induced phosphorylation of SMAD1/5/8, cytoblot (cellular ELISA); type: cell-based, murine; conditions: Mus musculus; FIG. 1; approximate; read-out: functional IC50, BMP4-induced SMAD1/5/8 phosphorylation
Method: Murine pulmonary artery smooth muscle cells were isolated, explanted and cultured as previously described (see […] et al. Am. J. Physiol. Lung Cell Mol. Physiol. 280:[…], 2001) and then grown to confluence in 96 well tissue culture plates. Cells were incubated in serum-free medium for 18 h, and then incubated with recombinant BMP2, BMP4, BMP6, BMP9, GDF5, TGF-β, or Activin A ligands (R&D Systems, Minneapolis, Minn.) at varying concentrations in duplicate for 20 minutes. […] Specificity for BMP-mediated signaling was determined separately using a modification of the cellular ELISA technique assaying for the activation of SMAD2 or SMAD3 via TGF-β, or Activin A. A corresponding IC50 was calculated for the effects of these compounds upon those signaling pathways.

[4] = test system: hepcidin; assay: Hepcidin expression in IL-6-expressing transgenic zebrafish; type: in vivo; conditions: 6 uM by bathing overnight; 7 days postfertilization; FIG. 22
Method: IL-6 expression was driven in the cardiomyocytes of living zebrafish by mating transgenic zebrafish expressing the Gal4 protein under the control of the cardiac myosin light chain 2 (cmlc) promoter with transgenic zebrafish carrying the human IL-6 gene under the control of a UAS upstream activation sequence (IL-6). Animals carrying both transgenes expressed IL-6 in their cardiomyocytes. IL-6-expressing animals were treated with 6 uM compound 13 or DMSO control by bathing overnight (FIG. 22). At 7 days postfertilization, animals were lysed, total RNA was extracted, and hepcidin expression levels were determined by quantitative RT-PCR with normalization to the housekeeping gene RPL13.

[5] = test system: PDGFR-mediated signaling; assay: PDGF-induced AKT phosphorylation, cellular ELISA in PaSMCs; type: cell-based, murine
Method: To test the relative effects of dorsomorphin and structurally-related compounds upon PDGFR-mediated signaling, PDGF-induced AKT phosphorylation was measured by cellular ELISA via the detection of phospho-AKT in PaSMCs treated with compounds for 10 min. followed by PDGF for 30 min.

[6] = test system: KDR-mediated signaling; assay: Antagonism of KDR-mediated signaling (not shown); conditions: compound 13 versus dorsomorphin
[7] = Plasma pharmacokinetics after single bolus intraperitoneal administration; type: in vivo, C57B16 mice; conditions: IP 3 mg/kg
Method: The pharmacokinetics of 13.HCl was evaluated after a single bolus intraperitoneal administration (3 mg/kg) in male and female C57B16 mice on a commercial rodent diet and water ad libitum prior to the study. Compound plasma levels were determined by LC-MS/MS and the pharmacokinetic parameters were determined using WinNonlin software (Pharsight Co., Mountain View, Calif.). Dosing solutions (0.6 mg/mL) were prepared in a vehicle comprising 2% hydropropyl-β-cyclodextrin in phosphate-buffered saline (PBS). Each time point (pre-dose, 5, 10, 15, 30, 60, 120, 240, 480, 1440 min post-dose) was dosed as N=3/sex. Each blood sample was collected via cardiac puncture after euthanasia with CO2 and placed in chilled tubes containing sodium heparin. Samples were centrifuged at 4° C. at 13,000 rpm for 5 min followed by extracted with acetonitrile and then analyzed.
The pharmacokinetics of 44.HCl and 37.HCl were evaluated after a single bolus intraperitoneal administration (3 mg/kg) in male C57B16 mice on a commercial rodent diet and water ad libitum prior to the study. Compound plasma levels were determined by LC-MS/MS and the pharmacokinetic parameters were determined using WinNonlin software (Pharsight Co., Mountain View, Calif.). Dosing solutions (0.6 mg/mL) were prepared in a vehicle comprising 2% hydropropyl-β-cyclodextrin in phosphate-buffered saline (PBS). Each time point (pre-dose, 5, 10, 15, 30, 60, 120, 240, 480, 1440 min post-dose) was dosed as
N=3/sex. Each blood sample was collected via cardiac puncture after euthanasia with CO2 and placed in chilled tubes containing sodium heparin. Samples were centrifuged at 4° C. at 13,000 rpm for 5 min followed by extracted with acetonitrile and then analyzed.

c1ccc2c(-c3cnn4cc(-c5ccc(N6CCNCC6)cc5)cnc34)ccnc2c1 [Compound 13, 4-[6-(4-piperazin-1-ylphenyl)pyrazolo[1,5-a]pyrimidin-3-yl]quinoline]
hepatic hepcidin elevation after turpentine [1]: effectively suppressed hepcidin elevation at 24-96 hours
blood hemoglobin ([2]; 3 mg/kg/d IP for final 3 weeks of 6 weeks turpentine, FIG. 17): significant improvement
hematocrit ([2]; 3 mg/kg/d IP for final 3 weeks of 6 weeks turpentine, FIG. 18): restoration of hematocrit to values within the normal range
mean corpuscular volume (MCV) ([2]; 3 mg/kg/d IP for final 3 weeks of 6 weeks turpentine, FIG. 19): restores MCV to low-normal levels
neutrophilia ([2]; FIG. 21): induced neutrophilia regardless of treatment with vehicle or compound 13
reticulocyte counts ([2]; cotreatment for final 3 weeks of 6 weeks turpentine, FIG. 20): restores high-normal reticulocyte counts
IC50 [3]: 0.005 to 0.01 µM
hepcidin expression in IL-6-expressing animals [4]: reduced hepcidin expression to wild-type levels
selectivity for BMP signaling versus PDGF signaling [5]: improves upon the selectivity
IC50 ([5]; Mus musculus, PASMC, compounds 10 min, then PDGF 30 min, FIG. 2, read-out: functional IC50, PDGF-induced AKT phosphorylation): ~2 µM
antagonism of KDR-mediated signaling [6]: five- to six-fold reduction
Tmax ([7]; C57B16, mouse, female mice, read-out: tmax): < 5 min
Tmax ([7]; C57B16, mouse, male mice, read-out: tmax): < 5 min
AUC∞ ([7]; female mice): 1030 ng·h/mL
Cmax ([7]; female mice): 1290 nM
Tmax ([7]; female mice): < 5 min
t1/2 ([7]; female mice): 96 min
AUC∞ ([7]; male mice): 994 ng·h/mL
Cmax ([7]; male mice): 1540 nM
Tmax ([7]; male mice): < 5 min
t1/2 ([7]; male mice): 96 min
